# Where two headings read alike, the source gives them in different places.
# Experiments:
# HUVEC [1] = assay: Quantitative free radical ROS content (Cm-H2DCFDA); format: cell-based, Human; details: vascular endothelial cells, treatment 10 min (FIG. 6)
# Procedure: (§1) Sildenafil, arginine, N-acetylcysteine, and S-nitroso-N-acetylpenicillamine (SNAP) are dissolved and diluted in phosphate buffered saline (PBS). […] The solutions are stored at a temperature of 4° C.
# (§2) Human umbilical vein endothelial cells (HUVEC) obtained from Bioresource Collection and Research Center (Hsinchu, Taiwan) were cultured in Ham's F-12K (Sigma-Aldrich) with endothelial cell growth supplement (Millipore), heparin (Sigma-Aldrich), 2.2 mg/mL sodium bicarbonate, and 10% FBS (Gibco). HUVEC at passage 5 to 15 were used in all applications. Human pulmonary artery vascular smooth muscle (PAVSM) cells and growth media were obtained from Lonza Inc. (Walkersville, MD., USA). Cells were grown in a 5% CO2 atmosphere at 37° C.
# For cell treatments, HUVEC and PAVSM cells were grown in confluence respectively on the upper and lower wells of Transwell® units. […]
# Detection Mode of Quantitative Free Radical ROS Content
# ROS detection studies were performed using a Cm-H2DCFDA ROS detection kit (Invitrogen, Grand Island, NY, USA). […] ROS generation was measured every 10 min up to 2 h with a micro-reader at 490 nm excitation, 530 nm emission. […] Samples were then measured immediately using a Promega microreader. ROS levels generated by 2.5×10^4 viable treated cells were expressed as the percentage of ROS produced by an equal number of viable negative control cells.
# HUVEC [2] = assay: Vascular permeability analysis: VEGF-A release content; format: cell-based, Human; details: vascular endothelial cells, treatment 10 min (FIG. 8)
# Procedure: as §1, §2
# For cell treatments, HUVEC and PAVSM cells were grown in confluence respectively on the upper and lower wells of Transwell® units. Culture medium volume in each upper chamber was 1.5 mL, and in each lower chamber was 2.5 mL. Confluent HUVEC cells were treated with regular medium in the presence or absence of S, SS, SN, SSN and SAN for 0, 10, 20, 30 and 60 min. All supernatants of HUVEC and PAVSM were collected right after the treatments for the NO amount analysis. […]
# VEGFA amount was assessed using the VEGFA assay kit (Promega). […] Relative Absorbance Unit at 540 nm emitted by the product was measured using a microreader.
# [3] = test system: Endothelial nitric oxide synthase (eNOS); assay: Expression amount of endothelial nitric oxide synthase (eNOS assay kit); format: cell-based, Human; details: vascular endothelial cells, treatment 10 min (FIG. 3)
# Procedure: Sildenafil, arginine, N-acetylcysteine, and S-nitroso-N-acetylpenicillamine (SNAP) are dissolved and diluted in phosphate buffered saline (PBS). […] The solutions are stored at a temperature of 4° C. […] Human umbilical vein endothelial cells (HUVEC) obtained from Bioresource Collection and Research Center (Hsinchu, Taiwan) were cultured in Ham's F-12K (Sigma-Aldrich) with endothelial cell growth supplement (Millipore), heparin (Sigma-Aldrich), 2.2 mg/mL sodium bicarbonate, and 10% FBS (Gibco). HUVEC at passage 5 to 15 were used in all applications. Human pulmonary artery vascular smooth muscle (PAVSM) cells and growth media were obtained from Lonza Inc. (Walkersville, MD., USA). Cells were grown in a 5% CO2 atmosphere at 37° C. For cell treatments, HUVEC and PAVSM cells were grown in confluence respectively on the upper and lower wells of Transwell® units. Culture medium volume in each upper chamber was 1.5 mL, and in each lower chamber was 2.5 mL. […] All supernatants of HUVEC and PAVSM were collected right after the treatments for the NO amount analysis. […] Analysis of Expression Amount of Endothelial Nitric Oxide Synthase Endothelial nitric oxide synthase (eNOS) activity was assessed using the eNOS assay kit (Promega). […] Relative Luminance Unit (RLU) emitted by the product was measured using a microreader.
# erectile dysfunction = details: sildenafil alone, placebo 25%, cited from earlier work
# [4] = sildenafil alone, healthy elderly subjects (65 years or older); cited from earlier work
# [5] = test system: Human umbilical vein endothelial cells (HUVEC); assay: Nitric oxide release amount from endothelial cells (NO assay kit); format: cell-based; details: vascular endothelial cells; for release amount of nitric oxide compared with control group (drug treatment for 0 min): 100 nM sildenafil
# Procedure: Sildenafil, arginine, N-acetylcysteine, and S-nitroso-N-acetylpenicillamine (SNAP) are dissolved and diluted in phosphate buffered saline (PBS). […] The solutions are stored at a temperature of 4° C. […] Human umbilical vein endothelial cells (HUVEC) obtained from Bioresource Collection and Research Center (Hsinchu, Taiwan) were cultured in Ham's F-12K (Sigma-Aldrich) with endothelial cell growth supplement (Millipore), heparin (Sigma-Aldrich), 2.2 mg/mL sodium bicarbonate, and 10% FBS (Gibco). HUVEC at passage 5 to 15 were used in all applications. Human pulmonary artery vascular smooth muscle (PAVSM) cells and growth media were obtained from Lonza Inc. (Walkersville, MD., USA). Cells were grown in a 5% CO2 atmosphere at 37° C. For cell treatments, HUVEC and PAVSM cells were grown in confluence respectively on the upper and lower wells of Transwell® units. Culture medium volume in each upper chamber was 1.5 mL, and in each lower chamber was 2.5 mL. […] All supernatants of HUVEC and PAVSM were collected right after the treatments for the NO amount analysis. HUVEC cells and PAVSM cells were rinsed in ice-cold phosphate buffered saline and then solubilized in ice-cold 6% trichloroacetic acid for the protein extraction. Samples were stored at −80° until the assays. Analysis of Nitric Oxide Release Amount from Endothelial Cells The nitric oxide amount was assessed using the NO assay kit (Promega). After treatment, the supernatants of HUVEC were collected for the NO assay reagent kit, and 200 μL per well was applied according to the manufacturer's instructions. Relative Luminance Unit (RLU) emitted by the product was measured using a microreader.
# [6] = test system: Human pulmonary artery vascular smooth muscle (PAVSM) cells; assay: cGMP in smooth muscle cells (cGMP immunoassay); format: cell-based; details: for amount of cGMP compared with control group (drug treatment for 0 min): 100 nM sildenafil
# Procedure: Sildenafil, arginine, N-acetylcysteine, and S-nitroso-N-acetylpenicillamine (SNAP) are dissolved and diluted in phosphate buffered saline (PBS). […] The solutions are stored at a temperature of 4° C. […] Human umbilical vein endothelial cells (HUVEC) obtained from Bioresource Collection and Research Center (Hsinchu, Taiwan) were cultured in Ham's F-12K (Sigma-Aldrich) with endothelial cell growth supplement (Millipore), heparin (Sigma-Aldrich), 2.2 mg/mL sodium bicarbonate, and 10% FBS (Gibco). HUVEC at passage 5 to 15 were used in all applications. Human pulmonary artery vascular smooth muscle (PAVSM) cells and growth media were obtained from Lonza Inc. (Walkersville, MD., USA). Cells were grown in a 5% CO2 atmosphere at 37° C. For cell treatments, HUVEC and PAVSM cells were grown in confluence respectively on the upper and lower wells of Transwell® units. Culture medium volume in each upper chamber was 1.5 mL, and in each lower chamber was 2.5 mL. […] All supernatants of HUVEC and PAVSM were collected right after the treatments for the NO amount analysis. HUVEC cells and PAVSM cells were rinsed in ice-cold phosphate buffered saline and then solubilized in ice-cold 6% trichloroacetic acid for the protein extraction. Samples were stored at −80° until the assays. Analysis of cGMP in Smooth Muscle Cells […] Nitric Oxide-Cyclic GMP Signaling Pathway as an Illustrative Example and Derivation of the General Case; PLOS COMPUTATIONAL BIOLOGY, DOI:10.1371/journal.pcbi.1004822 Mar. 17, 2016). cGMP formation was measured by immunoassay according to the cGMP Assay (Cayman Chemical Co., Ann Arbor, MI).
# HUVEC [7] = assay: Vascular fibrosis index: lipid peroxidation (malondialdehyde, MDA); format: cell-based, Human; details: vascular endothelial cells, treatment 10 min (FIG. 7)
# Procedure: as §1, §2
# For cell treatments, HUVEC and PAVSM cells were grown in confluence respectively on the upper and lower wells of Transwell® units. Culture medium volume in each upper chamber was 1.5 mL, and in each lower chamber was 2.5 mL. […]
# Lipid peroxidation in HUVEC protein extracts was quantified measuring the concentration of MDA by a spectrofluorometric assay using an “MDA assay kit” as described by Richard et al., 1992 (Richard et al. 1992). Quantification was achieved by parallel measurements of a standard curve of known MDA concentrations, and results were expressed as level change of the control.
structure (smiles),measurement,setting,value
"CCCc1nn(C)c2c(=O)[nH]c(-c3cc(S(=O)(=O)N4CCN(C)CC4)ccc3OCC)nc12 [SILD, sildenafil]",amount of ROS compared with control group (with no drug treatment),HUVEC [1],about 2.8 folds
same,amount of VEGFA compared with control group (with no drug treatment),HUVEC [2],about 3.9 folds
same,expression amount of nitric oxide synthase compared with control group (with no drug),[3],about 2 folds
same,proportion of disease improvement,erectile dysfunction; 25 mg,62%
same,proportion of disease improvement,erectile dysfunction; 50 mg,74%
same,proportion of disease improvement,erectile dysfunction; 100 mg,82%
same,clearance rate in elderly subjects,[4],decreased
same,release amount of nitric oxide compared with control group (drug treatment for 0 min),[5]; treatment 10 min (FIG. 1),about 1.6 folds
same,release amount of nitric oxide compared with control group (drug treatment for 0 min),[5]; treatment 20 min (FIG. 1),about 2.6 folds
same,release amount of nitric oxide compared with control group (drug treatment for 0 min),[5]; treatment 30 min (FIG. 1),about 3.1 folds
same,release amount of nitric oxide compared with control group (drug treatment for 0 min),[5]; treatment 60 min (FIG. 1),about 3.5 folds
same,release amount of nitric oxide compared with control group (with no drug),[5]; 10-min drug treatment (FIG. 2),about 1.6 folds
same,amount of cGMP compared with control group (drug treatment for 0 min),[6]; treatment 10 min (FIG. 4),about 2.6 folds
same,amount of cGMP compared with control group (drug treatment for 0 min),[6]; treatment 20 min (FIG. 4),~3 folds
same,amount of cGMP compared with control group (drug treatment for 0 min),[6]; treatment 30 min (FIG. 4),~4.7 folds
same,amount of cGMP compared with control group (drug treatment for 0 min),[6]; treatment 60 min (FIG. 4),~5.5 folds
same,amount of cGMP compared with control group (with no drug),[6]; 10-min treatment (FIG. 5),about 2.6 folds
same,amount of MDA compared with control group (with no drug treatment),HUVEC [7],about 2.8 folds
